# In publication PMC4955518 (Bioorganic & medicinal chemistry, 2016):
# Where a name gives a salt, the structure may show the parent alone. Read-outs that look alike come from different tables or passages of the source.
# Legend:
# human APJ = biological target: T1, human APJ (Homo sapiens, UniProt P35414); assay: Calcium mobilization assay for APJ; format: cell-based
# T1 sequence (P35414 1-380): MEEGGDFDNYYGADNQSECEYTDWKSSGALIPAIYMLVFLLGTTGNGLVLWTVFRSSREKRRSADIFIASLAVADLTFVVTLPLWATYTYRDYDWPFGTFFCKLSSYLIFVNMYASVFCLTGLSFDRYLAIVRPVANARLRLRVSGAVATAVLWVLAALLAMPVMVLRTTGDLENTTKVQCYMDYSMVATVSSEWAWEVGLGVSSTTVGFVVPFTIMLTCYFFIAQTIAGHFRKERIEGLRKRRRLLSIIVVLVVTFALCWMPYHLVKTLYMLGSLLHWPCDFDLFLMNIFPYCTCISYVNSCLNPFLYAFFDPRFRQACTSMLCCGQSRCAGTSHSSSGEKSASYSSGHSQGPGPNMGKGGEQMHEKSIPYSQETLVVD
# NTR2 [1] = biological target: T2, NTR2 (Rattus norvegicus, UniProt Q63384); assay: Calcium mobilization assay for NTR2; format: cell-based
# T2 sequence (Q63384 1-416): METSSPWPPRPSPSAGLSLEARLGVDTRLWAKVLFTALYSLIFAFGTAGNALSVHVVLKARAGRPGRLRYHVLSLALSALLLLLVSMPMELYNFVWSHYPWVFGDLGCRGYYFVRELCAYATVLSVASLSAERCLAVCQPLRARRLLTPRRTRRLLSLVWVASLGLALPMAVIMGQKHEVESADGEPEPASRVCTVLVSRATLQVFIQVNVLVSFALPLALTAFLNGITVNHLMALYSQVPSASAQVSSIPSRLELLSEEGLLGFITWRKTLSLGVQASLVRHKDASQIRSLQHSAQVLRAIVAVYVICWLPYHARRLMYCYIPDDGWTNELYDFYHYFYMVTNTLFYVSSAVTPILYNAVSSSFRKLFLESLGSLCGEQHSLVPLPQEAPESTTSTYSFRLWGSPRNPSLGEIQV
# NTR1 = NTR1 (Rattus norvegicus, UniProt P20789); assay: Calcium mobilization assay for NTR1; format: cell-based
# human apelin receptor = biological target: T3, human apelin receptor (Homo sapiens, UniProt P35414); assay: Radioligand displacement, [125I]-apelin-13, CHO-K1 cell membrane homogenates; format: binding
# T3 sequence (P35414 1-380): T1 sequence (P35414 1-380)
# NTR2 [2] = biological target: T2, NTR2; settings: read-out: NTR2 EC50 (off-target); cited from earlier work
# NTR2 receptor = settings: read-out: NTR2 Ki (off-target); cited from earlier work
# Chain of NTR1 (P20789 whole entry): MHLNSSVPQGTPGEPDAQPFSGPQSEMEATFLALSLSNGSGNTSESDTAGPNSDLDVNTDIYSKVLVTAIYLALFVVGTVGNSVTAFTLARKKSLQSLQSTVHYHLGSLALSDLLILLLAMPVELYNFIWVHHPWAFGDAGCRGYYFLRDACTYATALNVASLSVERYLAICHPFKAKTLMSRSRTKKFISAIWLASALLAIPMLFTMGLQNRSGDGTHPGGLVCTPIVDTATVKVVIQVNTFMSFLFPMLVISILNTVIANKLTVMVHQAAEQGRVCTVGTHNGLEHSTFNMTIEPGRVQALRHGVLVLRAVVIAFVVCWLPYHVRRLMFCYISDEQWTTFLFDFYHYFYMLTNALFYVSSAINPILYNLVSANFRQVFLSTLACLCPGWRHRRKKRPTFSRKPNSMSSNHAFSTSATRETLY
APJ agonist activity (human APJ; calcium mobilization),SMILES,other results
devoid of activity,"COc1cccc(OC)c1-c1cc(C(=O)N[C@H](C(N)=O)C2CCCCC2)nn1-c1ccc(F)cc1 [Compound 6, (S)-N-(2-Amino-1-cyclohexyl-2-oxoethyl)-5-(2,6-dimethoxyphenyl)-1-(4-fluorophenyl)-1H-pyrazole-3-carboxamide]",
did not possess activity,"COC(=O)[C@@H](NC(=O)c1cc(-c2c(OC)cccc2OC)n(-c2ccc(F)cc2)n1)C1CCCCC1 [Compound 4, (S)-Methyl 2-cyclohexyl-2-(5-(2,6-dimethoxyphenyl)-1-(4-fluorophenyl)-1H-pyrazole-3-carboxamido)acetate]",
loss of potency,"COc1cccc(O)c1-c1cc(C(=O)N[C@H](C(=O)O)C2CCCCC2)nn1-c1ccc(F)cc1 [Compound 13, 2-Cyclohexyl-2-(1-(4-fluorophenyl)-5-(2-hydroxy-6-methoxyphenyl)-1H-pyrazole-3-carboxamido)acetic acid]",
did not possess activity,"COc1cccc(OC)c1-c1cc(C(=O)NCC2CCCCC2)nn1-c1ccc(F)cc1 [Compound 5, N-(Cyclohexylmethyl)-5-(2,6-dimethoxyphenyl)-1-(4-fluorophenyl)-1H-pyrazole-3-carboxamide]",
significantly reduce activity,"COc1cccc(OC)c1-c1cc(C(=O)N[C@H](C(=O)O)C2CCCCC2)n(-c2ccc(F)cc2)n1 [Compound 1a, (S)-2-Cyclohexyl-2-(3-(2,6-dimethoxyphenyl)-1-(4-fluorophenyl)-1H-pyrazole-5-carboxamido)acetic acid]",
significantly reduce activity,"COc1cccc(OC)c1-c1cc(C(=O)N[C@@H](C(=O)O)C2CCCCC2)nn1-c1ccc(F)cc1 [Compound 3, (R)-2-Cyclohexyl-2-(5-(2,6-dimethoxyphenyl)-1-(4-fluorophenyl)-1H-pyrazole-3-carboxamido)acetic acid]",
devoid of activity,"COc1cccc(OC)c1-c1cc(C(=O)N[C@H](C(=O)NCc2ccccc2)C2CCCCC2)nn1-c1ccc(F)cc1 [Compound 8, (S)-N-(2-(Benzylamino)-1-cyclohexyl-2-oxoethyl)-5-(2,6-dimethoxyphenyl)-1-(4-fluorophenyl)-1H-pyrazole-3-carboxamide]",
inactive,"Cc1cc(C(=O)N[C@H](C(=O)O)C2CCCCC2)nn1-c1ccc(F)cc1 [Compound 15, (S)-2-Cyclohexyl-2-(1-(4-fluorophenyl)-5-methyl-1H-pyrazole-3-carboxamido)acetic acid]",
complete loss of agonist potency,"O=C(N[C@H](C(=O)O)C1CCCCC1)c1cc(-c2c(O)cccc2O)n(-c2ccc(F)cc2)n1 [Compound 12, (S)-2-Cyclohexyl-2-(5-(2,6-dihydroxyphenyl)-1-(4-fluorophenyl)-1H-pyrazole-3-carboxamido)acetic acid]",
inactive,"COc1cccc(OC)c1-c1cc(C(=O)N[C@H](C(=O)NCC(=O)O)C2CCCCC2)nn1-c1ccc(F)cc1 [Compound 11, (S)-2-(2-Cyclohexyl-2-(5-(2,6-dimethoxyphenyl)-1-(4-fluorophenyl)-1H-pyrazole-3-carboxamido)acetamido)acetic acid]",
full agonist,"COc1cccc(OC)c1-c1cc(C(=O)N[C@@H](CCC2CCCCC2)CC(=O)O)nn1-c1ccc(F)cc1 [Compound 22, (S)-5-Cyclohexyl-3-(5-(2,6-dimethoxyphenyl)-1-(4-fluorophenyl)-1H-pyrazole-3-carboxamido)pentanoic acid]",NTR2 functional behaviour (NTR2 [1]): partial agonists at NTR2; NTR1 activity as agonist or antagonist (NTR1): Neither compound had any significant NTR1 activity
,"COc1cccc(OC)c1-c1cc(C(=O)N[C@@H](CC(=O)O)C2CCCCC2)nn1-c1ccc(F)cc1 [Compound 21, (S)-3-Cyclohexyl-3-(5-(2,6-dimethoxyphenyl)-1-(4-fluorophenyl)-1H-pyrazole-3-carboxamido)propanoic acid]",EC50 (human APJ): 9.9 ± 2.6 µM; Ki (human apelin receptor): 1400 ± 200 nM; EC50 (NTR2 [1]): ~345 nM; NTR2 functional behaviour (NTR2 [1]): partial agonists at NTR2; Emax (NTR2 [1]; read-out: NTR2 Emax): 57%; NTR1 activity as agonist or antagonist (NTR1): Neither compound had any significant NTR1 activity
inactive,"COC(=O)CNC(=O)[C@@H](NC(=O)c1cc(-c2c(OC)cccc2OC)n(-c2ccc(F)cc2)n1)C1CCCCC1 [Compound 10, (S)-Methyl 2-(2-cyclohexyl-2-(5-(2,6-dimethoxyphenyl)-1-(4-fluorophenyl)-1H-pyrazole-3-carboxamido)acetamido)acetate]",
,COc1cccc(OC)c1-c1cc(C(=O)N[C@H](C(=O)O)C2CCCCC2)nn1-c1ccc(F)cc1 [Compound 1],"EC50 (human APJ; read-out: functional EC50 at APJ, calcium mobilization): 21.5 ± 5 µM; displacement of 125I radiolabeled pyr-apelin-13 (human apelin receptor): 100%; mode of binding at APJ (human apelin receptor; radioligand displacement studies): competitive orthosteric ligand of APJ; EC50 (NTR2 [2]): 271 nM; Ki (NTR2 receptor): 622 nM"
did not retain APJ potency,"COc1cccc(OC)c1-c1cc(C(=O)N[C@@H](CC(C)C)C(=O)O)nn1-c1ccc(F)cc1 [Compound 19, (S)-2-(5-(2,6-Dimethoxyphenyl)-1-(4-fluorophenyl)-1H-pyrazole-3-carboxamido)-4-methylpentanoic acid]",
devoid of activity,"COc1cccc(OC)c1-c1cc(C(=O)N[C@H](C(=O)N(C)C)C2CCCCC2)nn1-c1ccc(F)cc1 [Compound 7, (S)-N-(1-Cyclohexyl-2-(dimethylamino)-2-oxoethyl)-5-(2,6-dimethoxyphenyl)-1-(4-fluorophenyl)-1H-pyrazole-3-carboxamide]",

SMILES,APJ agonist activity (human APJ; calcium mobilization),other results
"COc1cccc(OC)c1-c1cc(C(=O)N[C@@H](CCCCNC(=O)OC(C)(C)C)C(=O)O)nn1-c1ccc(F)cc1 [Compound 17, (S)-6-((Tert-butoxycarbonyl)amino)-2-(5-(2,6-dimethoxyphenyl)-1-(4-fluorophenyl)-1H-pyrazole-3-carboxamido)hexanoic acid]",not tolerated,
"COc1cccc(OC)c1-c1cc(C(=O)N[C@H](C(=O)NO)C2CCCCC2)nn1-c1ccc(F)cc1 [Compound 9, (S)-N-(1-Cyclohexyl-2-(hydroxyamino)-2-oxoethyl)-5-(2,6-dimethoxyphenyl)-1-(4-fluorophenyl)-1H-pyrazole-3-carboxamide]",not tolerated,
"CCCCc1nc(Cl)c(CO)n1Cc1ccc(-c2ccccc2-c2nn[nH]n2)cc1 [losartan, reference compound]",none of these analogs possessed agonist activity,
"COc1cccc(OC)c1-c1cc(C(=O)N[C@@H](CCC(N)=O)C(=O)O)nn1-c1ccc(F)cc1 [Compound 16, (S)-5-Amino-2-(5-(2,6-dimethoxyphenyl)-1-(4-fluorophenyl)-1H-pyrazole-3-carboxamido)-5-oxopentanoic acid]",not tolerated,
"COc1cccc(OC)c1-c1cc(C(=O)N[C@@H](CCCCN)C(=O)O)nn1-c1ccc(F)cc1 [Compound 18, (S)-6-Amino-2-(5-(2,6-dimethoxyphenyl)-1-(4-fluorophenyl)-1H-pyrazole-3-carboxamido)hexanoic acid trifluoroacetate]",not tolerated,
"CCCCC(=O)N(Cc1ccc(-c2ccccc2-c2nnn[nH]2)cc1)[C@H](C(=O)O)C(C)C [valsartan, reference compound]",none of these analogs possessed agonist activity,
